Measurements reported in PubChem BioAssay AID844 (SRMLSC, 2007).
Active and inactive are the calls of the source. How the calls were made is not given here.

System: MRP1 cells, doxorubicin viability shift, 10 uM compound
Assay: viability protection against doxorubicin, MRP-1 line – cell-based, doxorubicin EC50 shift, dose response (AID 844)
Conditions: for EC50: measured here: doxorubicin EC50 with compound

Structure (SMILES): C=CCc1c(C)nc(-c2ccccc2)nc1N/N=C/c1ccccc1
- fold increase in Dox EC50: 0.87 (inactive)
- EC50: 4.7 µM

Structure (SMILES): Cc1c(C(=O)Nc2nnc(C(F)(F)F)s2)oc2ccccc12
- fold increase in Dox EC50: 2.05
- EC50: 11 µM

Structure (SMILES): COc1ccccc1-c1cc(C(=O)NC(C)c2ccccc2)no1 (centres undefined)
- fold increase in Dox EC50: 1.04 (inactive)
- EC50: 5.64 µM

Structure (SMILES): Brc1cc2c(cc1COc1ccc(-c3nn[nH]n3)cc1)OCO2
- fold increase in Dox EC50: 1.73
- EC50: 9.31 µM

Structure (SMILES): O=C(CN1C(=O)S/C(=C\c2ccc(Cl)cc2)C1=O)NNC(=O)c1ccccc1O
- fold increase in Dox EC50: 1.05 (inactive)
- EC50: 5.65 µM

Structure (SMILES): N#C/C(=N/Nc1ccccc1F)C(=N)N1CCOCC1
- fold increase in Dox EC50: 0.99 (inactive)
- EC50: 5.33 µM

Structure (SMILES): O=C(NCc1ccc(F)cc1)C(=O)NCC1OCCN1C(=O)c1cccs1 (centres undefined)
- fold increase in Dox EC50: 1.24 (inactive)
- EC50: 6.68 µM

Structure (SMILES): CC(C(=O)N1c2ccccc2CCc2ccccc21)n1nnc(-c2ccc(N(C)C)cc2)n1 (centres undefined)
- fold increase in Dox EC50: 1.06 (inactive)
- EC50: 5.7 µM

Structure (SMILES): Brc1ccc(CSc2ncn[nH]2)cc1
- fold increase in Dox EC50: 1 (inactive)
- EC50: 5.39 µM

Structure (SMILES): CCCCCCC1CC(CSc2ncn[nH]2)OC1=O (centres undefined)
- fold increase in Dox EC50: 1.14 (inactive)
- EC50: 6.14 µM

Structure (SMILES): Cc1ccc(CC2SC(=Nc3ccccc3)N(c3ccccc3)C2=O)cc1 (centres undefined)
- fold increase in Dox EC50: 1.69
- EC50: 9.1 µM

Structure (SMILES): Cc1cccc(NC(=O)CSc2nc(-c3ccccc3)c(C#N)c(=O)[nH]2)c1C
- fold increase in Dox EC50: 1.24 (inactive)
- EC50: 6.71 µM

Structure (SMILES): O=C(COc1ccc(Cl)cc1)N1CCN(Cc2ccccc2)CC1
- fold increase in Dox EC50: 1.38 (inactive)
- EC50: 7.48 µM

Structure (SMILES): Cc1cc(C)nc(NN2C(=O)/C(=C/c3ccccc3)SC2=S)n1
- fold increase in Dox EC50: 1.56
- EC50: 8.42 µM

Structure (SMILES): CNC(=S)Nc1ccc(C)cc1
- fold increase in Dox EC50: 0.67 (inactive)
- EC50: 3.64 µM

Structure (SMILES): Clc1ccc(CSc2ncn[nH]2)cc1
- fold increase in Dox EC50: 1.03 (inactive)
- EC50: 5.54 µM

Structure (SMILES): Cn1c(=O)[nH]c(=O)c2c1nc(SCC(=O)Nc1ccccc1)n2Cc1ccccc1
- fold increase in Dox EC50: 0.45 (inactive)
- EC50: 2.44 µM

Structure (SMILES): CCc1nnc(NC(=O)C2COc3ccccc3O2)s1 (centres undefined)
- fold increase in Dox EC50: 1.1 (inactive)
- EC50: 5.95 µM

Structure (SMILES): Cc1ccc(C)c(N2CCN(C(=O)c3ccc4nc(-c5ccco5)c(-c5ccco5)nc4c3)CC2)c1
- fold increase in Dox EC50: 0.79 (inactive)
- EC50: 4.25 µM

Structure (SMILES): N#Cc1cc2c(nc1SCc1ccc(Cl)cc1)CCCC2
- fold increase in Dox EC50: 1.07 (inactive)
- EC50: 5.75 µM

Structure (SMILES): O=C(Nc1nc(-c2cccc([N+](=O)[O-])c2)cs1)C(c1ccccc1)c1ccccc1
- fold increase in Dox EC50: 1.69
- EC50: 9.1 µM

Structure (SMILES): COC(=O)C(CC(C)C)NC(=O)CSc1nc(-c2ccccc2)c(C#N)c(=O)[nH]1 (centres undefined)
- fold increase in Dox EC50: 1.85
- EC50: 10 µM

Structure (SMILES): COc1ccc(C(=O)NCc2ccc(-c3nc4ccccc4s3)cc2)cc1
- fold increase in Dox EC50: 1.57
- EC50: 8.47 µM

Structure (SMILES): Cc1cccc2c3nc4ccccc4nc3n(CCCN3C(=O)c4ccccc4C3=O)c12
- fold increase in Dox EC50: 0.13 (inactive)
- EC50: 0.717 µM

Structure (SMILES): N#CCn1nnc(-c2ccc3c(c2)OCO3)n1
- fold increase in Dox EC50: 1.01 (inactive)
- EC50: 5.43 µM

Structure (SMILES): COc1ccc(/C=C2/N=C(SC3CCOC3=O)N(c3cccc(OC)c3)C2=O)cc1 (centres undefined)
- fold increase in Dox EC50: 0.68 (inactive)
- EC50: 3.67 µM

Structure (SMILES): COc1cccc(/C=N/N2C(=O)CSC2=S)c1O
- fold increase in Dox EC50: 1.31 (inactive)
- EC50: 7.08 µM

Structure (SMILES): Cc1n[nH]c(=S)n(/N=C/c2ccccn2)c1=O
- fold increase in Dox EC50: 0.91 (inactive)
- EC50: 4.9 µM

Structure (SMILES): Cc1noc(/C=C/N(C)C)c1S(=O)(=O)N1CCCC(C(=O)NCc2cccs2)C1 (centres undefined)
- fold increase in Dox EC50: 1.32 (inactive)
- EC50: 7.11 µM

Structure (SMILES): CNc1oc(-c2ccc(C)cc2)nc1P(=O)(c1ccccc1)c1ccccc1
- fold increase in Dox EC50: 0.95 (inactive)
- EC50: 5.13 µM

Structure (SMILES): O=C(NCC1(c2ccccc2)CCOCC1)c1ccc(Br)o1
- fold increase in Dox EC50: 1.3 (inactive)
- EC50: 7.01 µM

Structure (SMILES): Cc1cc(C)n(CCC(=O)N/N=C/c2ccccc2O)n1
- fold increase in Dox EC50: 0.28 (inactive)
- EC50: 1.54 µM

Structure (SMILES): N#CCSc1n[nH]c2nc3c(c(=O)n12)C1(CCCC1)Cc1ccccc1-3
- fold increase in Dox EC50: 0.46 (inactive)
- EC50: 2.49 µM

Structure (SMILES): CCCCCCCC1CC(CSc2ncn[nH]2)OC1=O (centres undefined)
- fold increase in Dox EC50: 0.94 (inactive)
- EC50: 5.08 µM

Structure (SMILES): CCC(C)Nc1ncnc2c1cnn2Cc1ccc(Cl)cc1 (centres undefined)
- fold increase in Dox EC50: 0.84 (inactive)
- EC50: 4.55 µM

Structure (SMILES): O=C(CSc1ncn[nH]1)NCCC(c1ccccc1)c1ccccc1
- fold increase in Dox EC50: 0.56 (inactive)
- EC50: 3.03 µM

Structure (SMILES): CCOC(=O)CN(C(=O)CSc1nnc(COc2ccc(OC)cc2)n1C)c1ccccc1
- fold increase in Dox EC50: 0.6 (inactive)
- EC50: 3.26 µM

Structure (SMILES): O=C(CCN1C(=O)/C(=C/c2ccccc2)SC1=S)NNC(=O)c1cccnc1
- fold increase in Dox EC50: 1.27 (inactive)
- EC50: 6.88 µM

Structure (SMILES): Cc1ccc(OCc2nnc(SCC(=O)N3c4ccccc4Sc4ccc(Cl)cc43)o2)cc1
- fold increase in Dox EC50: 0.85 (inactive)
- EC50: 4.57 µM

Structure (SMILES): O=C(COc1ccc(Br)cc1)c1ccc2c(c1)CCCC2
- fold increase in Dox EC50: 1.17 (inactive)
- EC50: 6.29 µM

Structure (SMILES): O=C1CSC(=S)N1N=C1CCCCCC1
- fold increase in Dox EC50: 0.92 (inactive)
- EC50: 4.99 µM

Structure (SMILES): O=C(CCN1C(=O)/C(=C\c2ccccc2)SC1=S)NNC(=O)c1cccnc1
- fold increase in Dox EC50: 1.2 (inactive)
- EC50: 6.49 µM

Structure (SMILES): CC(C)Cc1nnc(NC(=O)CSc2ncn[nH]2)s1
- fold increase in Dox EC50: 0.9 (inactive)
- EC50: 4.87 µM

Structure (SMILES): COc1ccc(-c2nnc(SC(C)C(=O)Nc3cccc(Cl)c3)o2)cc1 (centres undefined)
- fold increase in Dox EC50: 0.74 (inactive)
- EC50: 4 µM

Structure (SMILES): CC(=O)N1CCN=C1SCc1ccc(Br)cc1
- fold increase in Dox EC50: 0.97 (inactive)
- EC50: 5.26 µM

Structure (SMILES): O=C(O)CCN1C(=O)CC(N2C(=O)/C(=C/c3ccc(Cl)cc3)SC2=S)C1=O (centres undefined)
- fold increase in Dox EC50: 1.3 (inactive)
- EC50: 7.04 µM

Structure (SMILES): N#CC1=C2C=Cc3ccccc3N2CCCC1=O
- fold increase in Dox EC50: 1.28 (inactive)
- EC50: 6.9 µM

Structure (SMILES): C=CCOC(=O)C(C#N)c1nc2ccccc2nc1N1CCN(c2ccccc2OCC)CC1 (centres undefined)
- fold increase in Dox EC50: 0.56 (inactive)
- EC50: 3.05 µM

Structure (SMILES): Cc1cc(C(=O)Nc2nnc(C(F)(F)F)s2)no1
- fold increase in Dox EC50: 1.51
- EC50: 8.14 µM

Structure (SMILES): O=C(c1ccc(COc2ccc(Cl)cc2)o1)N1N=C(C(F)F)CC1(O)C(F)F (centres undefined)
- fold increase in Dox EC50: 1.44 (inactive)
- EC50: 7.77 µM

Structure (SMILES): O=C(Cn1c(COc2ccc(Cl)cc2)nc2ccccc21)NCC(F)(F)F
- fold increase in Dox EC50: 0.75 (inactive)
- EC50: 4.04 µM

Structure (SMILES): O=C(c1ccccc1)C(Sc1ncn[nH]1)c1ccccc1 (centres undefined)
- fold increase in Dox EC50: 0.68 (inactive)
- EC50: 3.7 µM

Structure (SMILES): Cc1ccc(-c2cc(C(F)F)nc(NCc3cccnc3)n2)cc1
- fold increase in Dox EC50: 0.52 (inactive)
- EC50: 2.81 µM

Structure (SMILES): COc1cc(/C=N/NC(=O)C23CC4CC(CC(C4)C2)C3)cc(Br)c1O
- fold increase in Dox EC50: 0.66 (inactive)
- EC50: 3.54 µM

Structure (SMILES): CCCCn1nnc(NC(=S)NC(=O)c2cccs2)n1
- fold increase in Dox EC50: 1.16 (inactive)
- EC50: 6.26 µM

Structure (SMILES): O=C(CSc1ncn[nH]1)Nc1nnc(-c2ccccc2)s1
- fold increase in Dox EC50: 0.58 (inactive)
- EC50: 3.12 µM

Structure (SMILES): CC1CCc2nn(CC(=O)N3CCN(C(=O)c4ccco4)CC3)cc2C1 (centres undefined)
- fold increase in Dox EC50: 0.66 (inactive)
- EC50: 3.57 µM
